Source: ChEMBL document CHEMBL1155668, “A new depsipeptide from the sacoglossan mollusk Elysia ornata and the green alga Bryopsis species” (J Nat Prod, 2000)
Calls of active or inactive are those of the source.

Legend:
Assay type in all cases: functional, cell-based
P388 = experiment: Growth inhibition of mouse P388 cells at 10 ug/mL
A549 = experiment: Growth inhibition of human A549 cells at 10 ug/mL
HT-29 = experiment: Growth inhibition of human HT29 cells at 10 ug/mL
MEL28 = experiment: Growth inhibition of human MEL28 cells at 10 ug/mL

Measured: Activity

CC[C@H](C)[C@@H]1NC(=O)[C@H]([C@@H](C)O)NC(=O)[C@@H](Cc2c[nH]c3ccccc23)NC(=O)[C@@H](Cc2ccc(O)cc2)NC(=O)[C@@H](NC(=O)CNC(=O)CCCC(C)C)[C@@H](C)OC(=O)[C@H](C(C)C)NC1=O
inactive: all assays above
